The values that follow are results of earlier work, collected in patent US20110268770A1, “CHEWABLE GELLED EMULSIONS” (PROBIO ASA, priority 2008, published 2011).

For this data set the following is noted: commercially available statins.
Consider `CC[C@H](C)C(=O)O[C@H]1C[C@@H](C)C=C2C=C[C@H](C)[C@H](CC[C@@H]3C[C@@H](O)CC(=O)O3)[C@H]21` [lovastatin], for which the “solubility class (water-soluble or lipid-soluble)” value (“solubility class” below) is on record as “lipid-soluble”.
Consider `CC[C@H](C)C(=O)O[C@H]1C[C@H](O)C=C2C=C[C@H](C)[C@H](CC[C@@H](O)C[C@@H](O)CC(=O)O)[C@H]21` [pravastatin], for which the “solubility class” value is on record as “water-soluble”.
As for `CC(C)c1nc(N(C)S(C)(=O)=O)nc(-c2ccc(F)cc2)c1/C=C/[C@@H](O)C[C@@H](O)CC(=O)O` [rosuvastatin], the “solubility class” value was “water-soluble”.
